From patent publication US20220259164A1, “USE OF AMINOTHIOL COMPOUNDS AS CEREBRAL NERVE OR HEART PROTECTIVE AGENT” (SHANGHAI KECHOW PHARMA, INC., priority 2019, published 2022)
“And” between values parts separate entries of the source, which are not always exact repeats. Equal entries are not always repeated. Where a SMILES comes first, the peptide text is derived from it. [ ]: non-standard residue; d: D form. NMeC = CN[C@@H](CS)C(=O)O

What was measured:
[1] = system: cisplatin-induced nephrotoxicity in SD rats; experiment: Cisplatin-induced nephrotoxicity in SD rats: blood creatinine and urea nitrogen; assay type: in vivo, rat; conditions: for Effect on cisplatin-induced increase of blood creatinine and urea nitrogen (in words): 30 min prior to cisplatin 5 mg/kg i.p.: compound B 200 mg/kg i.p., compound A 800 mg/kg p.o., amifostine 200 mg/kg i.p., day 5; for Creatinine / Urea nitrogen: whole blood day 5, individual rats
Experimental: Healthy male SPF grade SD rats (body weight 250-300 g) were selected. Control group: PBS […] Cisplatin+compound B group: 5 mg/kg i.p.+compound B at 200 mg/kg i.p., with compound B being administered 30 min prior to cisplatin administration Cisplatin+amifostine group: 5 mg/kg i.p.+AMI at 200 mg/kg i.p., with AMI being administered 30 min prior to cisplatin administration Cisplatin+compound A group: 5 mg/kg i.p.+compound A at 800 mg/kg p.o., with compound A being administered 30 min prior to cisplatin administration (1) The SD rats used in the experiment were weighed, labeled, and evenly divided into 5 groups, with 3 SD rats in each group. (2) The compound B, compound A, and AMI groups were respectively administered at the planned concentrations. […] (3) The rats were weighed and recorded daily, and on day 5, blood was taken from the intraocular canthus of the SD rats and placed in an anticoagulant tube.

[2] = system: bleomycin (BLM)-induced scleroderma mouse model; experiment: Dermal fibrosis in bleomycin (BLM)-induced scleroderma mouse model (H-E staining); assay type: in vivo, mice; conditions: compound A (hydrochloride) 600 mg/kg/d by gavage or compound B (trifluoroacetate) 200 mg/kg/d i.p., 28 days with BLM; compared with BLM model group
Source text: Materials: C57BL/6 female mice, weighing 20-25 g, were purchased from Shanghai SLAC Laboratory Animal Co., Ltd. Using a random number table method, 24 mice were divided into a blank control group (1), a scleroderma model group (2), a scleroderma+compound A treatment group (3), and a scleroderma+compound B treatment group (4), with 6 mice in each group. Bleomycin (BLM) was purchased from Sigma. An H-E staining kit was purchased from Beijing Solarbio Science & Technology Co., Ltd. Compound A used in this example was in the form of a hydrochloride thereof, and compound B was in the form of a trifluoroacetate thereof.
Method: The intended injection site (area 1 cm^2) of the mice was shaved using an electric shaver. The mice in groups (1) and (2) were intraperitoneally injected with PBS, the mice in group (3) were given compound A (600 mg/kg/d, dissolved in PBS) by gavage, and the mice in group (4) were intraperitoneally injected with compound B (200 mg/kg/d, dissolved in PBS). Immediately thereafter, the mice in group (1) were injected with PBS subcutaneously on the back, and the mice in groups (2) and (4) were injected with BLM (1 mg/ml, dissolved in PBS) subcutaneously on the back; and 15 min later, the mice in group (3) were injected with BLM (1 mg/ml, dissolved in PBS) subcutaneously on the back. After 28 days of continuous administration once a day, the animals were sacrificed on day 29 by cervical dislocation. Conventional iodine tincture was used to disinfect the back skin of the mice, and a local diseased skin tissue was surgically cut, fixed in 4% paraformaldehyde, embedded in paraffin, sectioned, and analyzed by H-E staining.

[3] = system: SD rat cerebral ischemia reperfusion injury model (MCAO); experiment: TTC staining and cerebral infarction area in rat ischemic stroke model (MCAO); assay type: in vivo; conditions: for Cerebral infarction area: individual rats
Experimental: Healthy male SPF grade SD rats (body weight 250-300 g) were selected. (1) The rats were anesthetized, the skin on the neck was prepared, and the body temperature was maintained at 37±0.5° C. (2) A midline neck incision was made to expose the right common carotid artery, internal carotid artery and external carotid artery. A 6-0 silk thread was used to ligate the distal end of the external carotid artery at 4 mm from the bifurcation of the common carotid artery, another 6-0 silk thread was inserted at the external carotid artery, and a slipknot was tied near the bifurcation of the common carotid artery. (3) An arterial clamp was used to clamp the common carotid artery. A small opening was cut on the external carotid artery at 3 mm from the bifurcation of the common carotid artery, and a 0.33 mm diameter nylon thread with a treated head end was inserted through the small opening, entered the internal carotid artery, and was inserted inward to the middle cerebral artery, wherein the insertion depth of the nylon thread was about 16±1 mm from the bifurcation of the common carotid artery. (4) The thread embolism was removed 90 min after ischemia, the proximal end of the external artery was ligated with a 6-0 silk thread, the neck wound was sutured with a 3-0 silk thread, the wound was disinfected with povidone iodine, the rats were placed on a heating pad, and after being awake, they were placed in a constant temperature rearing box for rearing. […] After the rats were anesthetized, the brain tissues were taken from the rats, placed in a refrigerator and frozen at -20° C. for 30 min. 1% TTC (W/V) was prepared with PBS and placed in a water bath at 37° C. until the TTC was dissolved, and the frozen brain tissue was sliced, placed in 10 ml of the TTC solution and incubated at 37° C. for 10 min. The brain slices were turned from time to time to make the tissue evenly stained. Normal brain tissue was bright red after staining, whereas the infarction region was pale white in color or light white in a black and white image. In addition, a software was used to measure and statistically analyze the infarction area. In a manner same as in Example 1, experimental animals were selected, except that the experiment was divided into seven groups (i.e., groups […], and G, among which groups C, D, and E were given different dosages of administration from Example 1, group F was given edaravone, and group G was given amifostine).

[4] = compound A (trifluoroacetate) 800 mg/kg p.o. 30 min prior to cisplatin 5 mg/kg i.p.
[5] = Example 2 group D: compound A (trifluoroacetate) 400 mg/kg p.o. 2.5 h before reperfusion, 400 mg/kg
[6] = Example 2 group E: compound A (trifluoroacetate) 800 mg/kg p.o. 2.5 h before reperfusion, 800 mg/kg
[7] = compound B (trifluoroacetate) 200 mg/kg i.p. 30 min prior to cisplatin 5 mg/kg i.p.
[8] = Example 2 group C: compound B (trifluoroacetate) 100 mg/kg i.p. 5 min before reperfusion, 100 mg/kg

Structure (SMILES) | Effect on cisplatin-induced increase of blood creatinine and urea nitrogen (in words) [1] | Creatinine [1, 4] | Urea nitrogen [1, 4] | Collagen in the dermis and fat layer (H-E staining) [2] | Thickness of the dermis in the skin lesion area [2] | % Improvement of cerebral infarction area ([3]; Example 1 group E: compound A (trifluoroacetate) 1600 mg/kg p.o. 2.5 h before reperfusion, 1600 mg/kg) [%] | Cerebral infarction area ([3]; Example 1 group E: compound A (trifluoroacetate) 1600 mg/kg p.o. 2.5 h before reperfusion, 24 h, 1600 mg/kg) | % Improvement of cerebral infarction area [3, 5] [%] | Cerebral infarction area [3, 5] | % Improvement of cerebral infarction area [3, 6] [%] | Cerebral infarction area [3, 6] | Creatinine [1, 7] | Urea nitrogen [1, 7] | % Improvement of cerebral infarction area ([3]; Example 1 group C: compound B (trifluoroacetate) 200 mg/kg i.p. 5 min before reperfusion, 200 mg/kg) [%] | Cerebral infarction area ([3]; Example 1 group C: compound B (trifluoroacetate) 200 mg/kg i.p. 5 min before reperfusion, 24 h, 200 mg/kg) | % Improvement of cerebral infarction area ([3]; Example 1 group D: compound B (trifluoroacetate) 200 mg/kg i.p. during ischemia and 200 mg/kg i.p. 5 min before reperfusion) [%] | Cerebral infarction area ([3]; Example 1 group D: compound B (trifluoroacetate) 200 mg/kg i.p. during ischemia and 200 mg/kg i.p. 5 min before reperfusion, 24 h) | % Improvement of cerebral infarction area [3, 8] [%] | Cerebral infarction area [3, 8]
CNC(=O)[C@H](CS)NC(=O)[C@H](CS)NC [Compound A, (R)-3-mercapto-N—((R)-3-mercapto-1-(methylamino)-1-oxoprop-2-yl)-2-(methylamino)propionamide] (H-[NMeC]-Cys-NHMe) | significantly reduce the increased blood creatinine and urea nitrogen levels | 28.4 µmol/L and 18.1 µmol/L and 17.1 µmol/L | 7.68 mmol/L and 7.16 mmol/L and 10.21 mmol/L | the collagen thickness in the dermis was significantly reduced and the fat layer was significantly thickened | could better reduce the thickness of the dermis at the skin lesion site | 83.9 | 40.19 mm^3 and 26.33 mm^3 and 9.18 mm^3 | 72.97 | 25.16 mm^3 and 11.23 mm^3 and 20.59 mm^3 and 15.48 mm^3 and 38.04 mm^3 and 82.75 mm^3 | 87.32 | 14.23 mm^3 and 0 mm^3 (2×) and 16.93 mm^3 and 12.31 mm^3 and 47.18 mm^3 |  |  |  |  |  |  |  | 
CNC(=O)[C@H](CS)NC(=O)[C@H](CS)NC(=O)[C@H](CS)NC [Compound B, (R)-3-mercapto-N—((R)-3-mercapto-1-(((R)-3-mercapto-1-(methylamino)-1-oxoprop-2-yl)amino)-1-oxoprop-2-yl)-2-(methylamino)propionamide] (H-[NMeC]-Cys-Cys-NHMe) | significantly reduce the increased blood creatinine and urea nitrogen levels |  |  | collagen proliferation in the dermis in the compound B treatment group was improved | reduced (p<0.01) |  |  |  |  |  |  | 18.1 µmol/L and 14.7 µmol/L and 30.4 µmol/L | 7.28 mmol/L and 5.71 mmol/L and 6.77 mmol/L | 62.5 | 67.44 mm^3 and 67.69 mm^3 and 32.84 mm^3 and 23.4 mm^3 and 105.9 mm^3 | 44.4 | 67.53 mm^3 and 105.5 mm^3 | 59.5 | 0 mm^3 and 32.568 mm^3 and 45.956 mm^3 and 21.529 mm^3 and 104.008 mm^3 and 85.208 mm^3
